This is an account of results in PMC9670689 (ACS Omega, 2022).

Converted amounts (≈) assume the structure as drawn.

For one data set, the system named is neuraminidase. Description: Colorimetric neuraminidase inhibition assay. It is filed as biochemical.
Data set [1] has as its system Seasonal influenza A/Egypt/NRC098/2019(H1N1). Description: microbe, parasite or virus in culture. It is filed as cell-based, seasonal human influenza A/H1N1 virus. The conditions noted are these: H1N1, MDCK, in Homo sapiens.

Broadly, the IC50 is the concentration that gives 50% inhibition. A lower IC50 goes with higher potency. Consider `CC1=C2[C@H]3OC(=O)[C@@H](C)[C@@H]3CC[C@@]2(C)C=CC1=O` [santonin], for which the “neuraminidase inhibition activity (in words)” value in the data set on neuraminidase (all tested concentrations (10 mM to 1 μM), compared to zanamivir) was “dose-dependant neuraminidase inhibition activities”. Besides, the neuraminidase activity stood at 0.65 ± 0.18 units/mL with neuraminidase (following treatment with 1 μM); 0.42 ± 0.08 units/mL in the data set on neuraminidase (following treatment with 10 μM); 0.41 ± 0.06 units/mL with neuraminidase (following treatment with 100 μM); 0.35 ± 0.11 units/mL in the data set on neuraminidase (following treatment with 1 mM); 0.14 ± 0.097 units/mL with neuraminidase (following treatment with 10 mM). The compound also registered an IC50 in data set [1] of 2.91 µg/mL (≈ 11.8 µM). For the same compound, the “toxic effect in MDCK cells (in words)” value with MDCK cells is given as “slightly toxic effect”.
